The results in this text go back to patent US6673795B2, “Pyrimidine, pyrazine and triazane derivatives” (Hoffmann-La Roche Inc., priority 2001, dated 2004).

In this test the target is T1, rat mGluR1a receptor (Rattus norvegicus, UniProt P23385).
T1 construct: expressed in transfected cells; host or cells: HEK 293 cells, transient transfection; membrane preparation
T1 sequence (P23385 19-1199): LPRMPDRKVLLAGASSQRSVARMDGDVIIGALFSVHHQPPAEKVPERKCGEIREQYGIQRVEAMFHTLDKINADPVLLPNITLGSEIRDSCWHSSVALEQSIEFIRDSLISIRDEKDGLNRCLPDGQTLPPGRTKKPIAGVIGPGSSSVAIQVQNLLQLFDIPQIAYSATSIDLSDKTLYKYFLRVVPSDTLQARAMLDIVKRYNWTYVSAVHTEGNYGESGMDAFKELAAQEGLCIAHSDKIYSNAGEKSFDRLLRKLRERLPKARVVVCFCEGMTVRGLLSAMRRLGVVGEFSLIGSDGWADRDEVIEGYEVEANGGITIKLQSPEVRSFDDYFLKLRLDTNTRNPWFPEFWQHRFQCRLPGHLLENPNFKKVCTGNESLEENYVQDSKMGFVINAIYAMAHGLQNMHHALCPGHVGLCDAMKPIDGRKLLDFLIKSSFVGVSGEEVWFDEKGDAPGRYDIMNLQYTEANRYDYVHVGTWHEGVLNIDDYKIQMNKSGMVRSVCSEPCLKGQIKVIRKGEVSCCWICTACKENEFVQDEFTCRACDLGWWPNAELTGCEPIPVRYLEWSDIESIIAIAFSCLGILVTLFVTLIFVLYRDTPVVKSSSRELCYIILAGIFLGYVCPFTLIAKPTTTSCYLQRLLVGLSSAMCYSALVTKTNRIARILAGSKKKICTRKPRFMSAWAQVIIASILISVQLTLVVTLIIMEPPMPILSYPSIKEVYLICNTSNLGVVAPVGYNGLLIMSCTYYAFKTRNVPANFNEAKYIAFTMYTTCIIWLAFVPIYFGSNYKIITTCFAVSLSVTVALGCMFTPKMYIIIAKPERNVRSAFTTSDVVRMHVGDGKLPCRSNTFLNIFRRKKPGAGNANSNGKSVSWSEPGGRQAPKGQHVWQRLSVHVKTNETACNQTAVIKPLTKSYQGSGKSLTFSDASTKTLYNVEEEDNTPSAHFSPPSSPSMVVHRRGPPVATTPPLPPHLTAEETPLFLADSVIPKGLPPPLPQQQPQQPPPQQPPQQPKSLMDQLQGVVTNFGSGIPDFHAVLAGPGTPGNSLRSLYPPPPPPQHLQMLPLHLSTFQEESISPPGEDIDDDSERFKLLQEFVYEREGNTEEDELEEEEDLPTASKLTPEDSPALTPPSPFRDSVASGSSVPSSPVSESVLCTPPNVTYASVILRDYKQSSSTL
Briefly: Binding assay for the characterization of mGluR 1 antagonistic properties (tritiated radioligand displacement). The conditions noted are these: membranes of HEK 293 cells transiently transfected with rat mGluR1a; tritiated 1-ethyl-2-methyl-6-oxo-4-(1,1,2-tritritio-1,2,4,5-tetrahydro-benzo[d]azepin-3-yl)-1,6-dihydro-pyrimidine-5-carbonitrile at 3 nM; 1 hour at room temperature. The protocol: Binding Assay for the Characterization of mGluR 1 Antagonistic Properties
Binding assay with tritiated 1-ethyl-2-methyl-6-oxo-4-(1,1,2-tritritio-1,2,4,5-tetrahydro-benzo[d]azepin-3-yl)-1,6-dihydro-pyrimidine-5-carbonitrile: HEK 293 cells were transiently transfected with the rat mGluR^1 a receptor. The cells were collected and washed 3 times with PBS. The cell pellets were frozen at −80° C. Membranes were prepared from HEK 293 cells transfected with the rat mGluR^1 a receptor and used in the binding experiments at 10 μg proteins per assay after resuspension in a HEPES NaOH 20 mM, pH=7.4 binding buffer. 1-Ethyl-2-methyl-6-oxo-4-(1,1,2-tritritio-1,2,4,5-tetrahydro-benzo [d]azepin-3-yl)-1,6-dihydro-pyrimidine-5-carbonitrile (S.A 33.4 Ci/mmol) was used at 3 nM final concentration. The incubation with variable concentrations of potential inhibitors was performed for 1 hour at room temperature, the incubate was then filtered onto GF/B glass fiber filter preincubated 1 hour in PEI 0,1% and washed 3 times with 1 ml of cold binding buffer. The radioactivity retained on the unifilter 96 was counted using a Topcount β counter. After correction for non specific binding the data were normalized and the IC50 value calculated using a 4 parameters logistic equation which was fitted to the inhibition curve.
In general terms: In a radioligand displacement assay an active substance lowers the binding of a labelled ligand.
`Cc1nc(N2CCN(c3ccc(F)cc3)CC2)c([N+](=O)[O-])c(=O)n1CCO` [Example 8-1, 6-[4-(4-fluoro-phenyl)-piperazin-1-yl]-3-(2-hydroxy-ethyl)-2-methyl-5-nitro-3H-pyrimidin-4-one]: the IC50 (commonly the concentration needed to halve the response being measured) amounted to 42 nM.
In the case of `Cc1nc(OCCO)c([N+](=O)[O-])c(N2CCN(c3ccc(F)cc3)CC2)n1` [Example 8-2, 2-{6-[4-(4-fluoro-phenyl)-piperazin-1-yl]-2-methyl-5-nitro-pyrimidin-4-yloxy}-ethanol] it was 58 nM; in that of `CCn1c(C)nc(N2CCN(c3ccc(F)cc3)CC2)c([N+](=O)[O-])c1=O` [Example 10-1, 3-ethyl-6-[4-(4-fluoro-phenyl)-piperazin-1-yl]-2-methyl-5-nitro-3H-pyrimidin-4-one], 49 nM; in that of `N#Cc1c(NCCO)nc(NCCO)nc1N1CCN(c2ccccc2F)CC1` [Example 20, 4-[4-(2-Fluoro-phenyl)-piperazin-1-yl]-2,6-bis-(2-hydroxy-ethylamino)-pyrimidine-5-carbonitrile], 290 nM.
With `CSc1ccccc1N1CCN(c2nc(NCCO)nc(NCCO)c2C#N)CC1` [Example 25, 2,4-Bis-(2-hydroxy-ethylamino)-6-[4-(2-methylsulfanyl-phenyl)-piperazin-1-yl]-pyrimidine-5-carbonitrile], the IC50 was 350 nM.
`N#Cc1c(NCCO)nc(NCCO)nc1N1CCN(c2ccccc2[N+](=O)[O-])CC1` [Example 29, 2,4-Bis-(2-hydroxy-ethylamino)-6-[4-(2-nitro-phenyl)-piperazin-1-yl]-pyrimidine-5-carbonitrile]: the IC50 was 750 nM.
In the case of `N#Cc1c(NCCO)nc(NCCO)nc1N1CCC(c2ccc(F)cc2)CC1` [Example 32, 4-[4-(4-Fluoro-phenyl)-piperidin-1-yl]-2,6-bis-(2-hydroxy-ethylamino)-pyrimidine-5-carbonitrile] it was 700 nM; in that of `N#Cc1c(NCCO)nc(NCCO)nc1N1CC=C(c2ccc(F)cc2)CC1` [Example 35, 4-[4-(4-Fluoro-phenyl)-3,6-dihydro-2H-pyridin-1-yl]-2,6-bis-(2-hydroxy-ethylamino)-pyrimidine-5-carbonitrile], 390 nM.
Turning to `N#Cc1c(NCCO)nc(NCCO)nc1N1CCC(C#N)(c2ccccc2)CC1` [Example 37, 4-(4-cyano-4-phenyl-piperidin-1-yl)-2,6-bis-(2-hydroxy-ethylamino)-pyrimidine-5-carbonitrile], the IC50 worked out at 1800 nM.
`N#Cc1c(NC2CC2)nc(NC2CC2)nc1N1CCN(c2ccccc2)CC1` [Example 38, 2,4-Bis-cyclopropylamino-6-(4-phenyl-piperazin-1-yl)-pyrimidine-5-carbonitrile] yielded an IC50 of 64 nM.
Molecule `N#Cc1c(NCc2ccccn2)nc(NCc2ccccn2)nc1N1CCN(c2ccccc2)CC1` [Example 40, 4-(4-Phenyl-piperazin-1-yl)-2,6-bis-[(pyridin-2-ylmethyl)-amino]-pyrimidine-5-carbonitrile] had an IC50 of 1500 nM. Against the preceding molecule, the IC50 is about 23-fold higher.
Take `N#Cc1c(NCCO)nc(NC2CC2)nc1N1CCN(c2ccccc2)CC1` [Example 47, 2-cyclopropylamino-4-(2-hydroxy-ethylamino)-6-(4-phenyl-piperazin-1-yl)-pyrimidine-5-carbonitrile]: the IC50 was determined as 33 nM.
In the case of `N#Cc1c(NCCO)nc(NCc2cccnc2)nc1N1CCN(c2ccccc2)CC1` [Example 49, 4-(2-Hydroxy-ethylamino)-6-(4-phenyl-piperazin-1-yl)-2-[(pyridin-3-ylmethyl)-amino]-pyrimidine-5-carbonitrile] it was 150 nM; in that of `N#Cc1c(NCCO)nc(NCc2cccnc2)nc1N1CCC(c2ccccc2)CC1` [Example 54, 4-(2-Hydroxy-ethylamino)-6-(4-phenyl-piperidin-1-yl)-2-[(pyridin-3-ylmethyl)-amino]-pyrimidine-5-carbonitrile], 30 nM.
